Values after ≈ are worked out from the molar mass of the structure shown.
Legend:
Experiment in all cases: Microtitre plate assay, IC90 determination
Type in all cases: cell-based
[1] = system: Staphylococcus aureus (ATCC43300); settings: 90% inhibitory concentration for bacterial growth, 37° C., resazurin fluorescence, read-out: IC90 (μg/ml) STA 43300
Method: (§1) The bacteria used in this study were grown overnight in flasks containing 100 ml Mueller-Hinton Broth (Becton Dickinson—cat. no. 275730) in sterile de-ionized water, with shaking, at 37° C. Stocks (0.5 ml/tube) were stored at −70° C. until use. Bacteria titrations were performed in microtiter plates and colony forming units (CFUs) were determined. In general, an inoculum level of approximately 100 CFUs was used for susceptibility testing.
(§2) Anti Bacterial Susceptibility Testing: IC90 Determination
(§3) Flat-bottom, sterile 96-well plastic microtiter plates were filled with 180 μl of sterile deionized water, supplemented with 0.25% BSA. Subsequently, stock solutions (7.8×final test concentration) of compounds were added in 45 μl volumes in column 2 Serial five-fold dilutions (45 μl in 180 μl) were made directly in the microtiter plates from column 2 to reach column 11. Untreated control samples with (column 1) and without (column 12) inoculum were included in each microtiter plate. Depending on the bacteria type, approximately 10 to 60 CFU per well of bacteria inoculum (100 TCID50), in a volume of 100 μl in 2.8× Mueller-Hinton broth medium, was added to the rows A to H, except column 12. The same volume of broth medium without inoculum was added to column 12 in row A to H. The cultures were incubated at 37° C. for 24 hours under a normal atmosphere (incubator with open air valve and continuous ventilation). At the end of incubation, one day after inoculation, the bacterial growth was quantitated fluorometrically. Therefore resazurin (0.6 mg/ml) was added in a volume of 20 μl to all wells […], and the plates were re-incubated overnight. A change in colour from blue to pink indicated the growth of bacteria.
(§4) The fluorescence was read in a computer-controlled fluorometer (Cytofluor Biosearch) at an excitation wavelength of 530 nm and an emission wavelength of 590 nm. The % growth inhibition achieved by the compounds was calculated according to standard methods. The IC90 (expressed in μg/ml) was defined as the 90% inhibitory concentration for bacterial growth.

[2] = system: Streptococcus mutans (ATCC33402); settings: 90% inhibitory concentration for bacterial growth, 37° C., resazurin fluorescence, read-out: IC90 (μg/ml) SMU 33402
Method: as §1, §2, §3, §4

[3] = system: Enterococcus faecalis (ATCC29212); settings: 90% inhibitory concentration for bacterial growth, 37° C., resazurin fluorescence, read-out: IC90 (μg/ml) EFA 29212
Method: as §1, §2, §3, §4

[4] = system: Staphylococcus aureus (ATCC25923); settings: 90% inhibitory concentration for bacterial growth, 37° C., resazurin fluorescence, read-out: IC90 (μg/ml) STA 25923
Method: as §1, §2, §3, §4

[5] = system: Listeria monocytogenes (ATCC49594); settings: 90% inhibitory concentration for bacterial growth, 37° C., resazurin fluorescence, read-out: IC90 (μg/ml) LMO 49594
Method: as §1, §2, §3, §4

[6] = system: Pseudomonas aeruginosa (ATCC27853); settings: 90% inhibitory concentration for bacterial growth, 37° C., resazurin fluorescence, read-out: IC90 (μg/ml) PAE 27853
Method: as §1, §2, §3, §4

[7] = system: Enterococcus faecalis (ATCC14506); settings: 90% inhibitory concentration for bacterial growth, 37° C., resazurin fluorescence, read-out: IC90 (μg/ml) EFA 14506
Method: as §1, §2, §3, §4

[8] = system: Staphylococcus aureus (ATCC29213); settings: 90% inhibitory concentration for bacterial growth, 37° C., resazurin fluorescence, read-out: IC90 (μg/ml) STA 29213
Method: as §1, §2, §3, §4

[9] = system: methicilline resistant Staphylococcus aureus (MRSA) (a clinical isolate from the University of Antwerp); settings: 90% inhibitory concentration for bacterial growth, 37° C., resazurin fluorescence, read-out: IC90 (μg/ml) STA RMETHIC
Method: as §1, §2, §3, §4

[10] = system: Bacillus subtilis (ATCC43639); settings: 90% inhibitory concentration for bacterial growth, 37° C., resazurin fluorescence, read-out: IC90 (μg/ml) BSU 43639
Method: as §1, §2, §3, §4

[11] = system: Streptococcus pyogens (ATCC8668); settings: 90% inhibitory concentration for bacterial growth, 37° C., resazurin fluorescence, read-out: IC90 (μg/ml) SPY 8668
Method: as §1, §2, §3, §4

[12] = system: Streptococcus pneumoniae (ATCC6305); settings: 90% inhibitory concentration for bacterial growth, 37° C., resazurin fluorescence, read-out: IC90 (μg/ml) SPN 6305
Method: as §1, §2, §3, §4

[13] = system: Escherichia coli (ATCC25922); settings: 90% inhibitory concentration for bacterial growth, 37° C., resazurin fluorescence, read-out: IC90 (μg/ml) ECO 25922
Method: as §1, §2, §3, §4

[14] = system: Escherichia coli (ATCC35218); settings: 90% inhibitory concentration for bacterial growth, 37° C., resazurin fluorescence, read-out: IC90 (μg/ml) ECO 35218
Method: as §1, §2, §3, §4

[15] = system: Escherichia coli (ATCC1403); settings: 90% inhibitory concentration for bacterial growth, 37° C., resazurin fluorescence, read-out: IC90 (μg/ml) ECO 1403
Method: as §1, §2, §3, §4

SMILES | IC90 [1] | IC90 [2] | IC90 [3] | IC90 [4] | IC90 [5] | IC90 [6] | IC90 [7] | IC90 [8] | IC90 [9] | IC90 [10] | IC90 [11] | IC90 [12] | IC90 [13] | IC90 [14] | IC90 [15]
COc1nc2cccc(C(O)(CCN(C)C)c3cccc4ccccc34)c2cc1-c1ccccc1 (stereo not drawn) [Compound 2] | 9.2 µg/mL (≈ 19.9 µM) | 9.2 µg/mL (≈ 19.9 µM) | 11.6 µg/mL (≈ 25.1 µM) | 11.6 µg/mL (≈ 25.1 µM) | 11.6 µg/mL (≈ 25.1 µM) | 9.2 µg/mL (≈ 19.9 µM) | 8.2 µg/mL (≈ 17.7 µM) | 9.2 µg/mL (≈ 19.9 µM) | 11.6 µg/mL (≈ 25.1 µM) | 9.2 µg/mL (≈ 19.9 µM) | 9.2 µg/mL (≈ 19.9 µM) | 11.6 µg/mL (≈ 25.1 µM) | – | – | –
COc1nc2cccc(C(O)(CCN(C)C)c3ccc4ccccc4c3)c2cc1-c1ccccc1 (stereo not drawn) [Compound 3] | 9.2 µg/mL (≈ 19.9 µM) | 9.2 µg/mL (≈ 19.9 µM) | 11.6 µg/mL (≈ 25.1 µM) | 11.6 µg/mL (≈ 25.1 µM) | 11.6 µg/mL (≈ 25.1 µM) | 9.2 µg/mL (≈ 19.9 µM) | – | 11.6 µg/mL (≈ 25.1 µM) | 11.6 µg/mL (≈ 25.1 µM) | 11.6 µg/mL (≈ 25.1 µM) | 9.2 µg/mL (≈ 19.9 µM) | 5.2 µg/mL (≈ 11.2 µM) | – | – | –
COc1nc2cccc(C(O)(CCN(C)C)c3cc4ccccc4o3)c2cc1-c1ccccc1 (stereo not drawn) [Compound 6] | 9 µg/mL (≈ 19.9 µM) | 9 µg/mL (≈ 19.9 µM) | 11.4 µg/mL (≈ 25.2 µM) | 11.4 µg/mL (≈ 25.2 µM) | 11.4 µg/mL (≈ 25.2 µM) | 9 µg/mL (≈ 19.9 µM) | – | 9 µg/mL (≈ 19.9 µM) | 10.1 µg/mL (≈ 22.3 µM) | 11.4 µg/mL (≈ 25.2 µM) | 9 µg/mL (≈ 19.9 µM) | 11.4 µg/mL (≈ 25.2 µM) | – | – | –
COc1nc2c(C(O)(CCN(C)C)c3cc(F)cc(F)c3)cc(Br)cc2cc1-c1ccccc1 (stereo not drawn) [Compound 9] | 13.3 µg/mL (≈ 25.2 µM) | 10.5 µg/mL (≈ 19.9 µM) | 10.5 µg/mL (≈ 19.9 µM) | 11.8 µg/mL (≈ 22.4 µM) | 10.5 µg/mL (≈ 19.9 µM) | 10.5 µg/mL (≈ 19.9 µM) | 11.8 µg/mL (≈ 22.4 µM) | 10.5 µg/mL (≈ 19.9 µM) | 11.8 µg/mL (≈ 22.4 µM) | – | 10.5 µg/mL (≈ 19.9 µM) | 13.3 µg/mL (≈ 25.2 µM) | – | – | –
COc1nc2c(C(O)(CCN(C)C)c3cc(F)cc(F)c3)cc(Br)cc2cc1Cc1ccccc1 (stereo not drawn) [Compound 12] | 10.8 µg/mL (≈ 19.9 µM) | 10.8 µg/mL (≈ 19.9 µM) | 13.6 µg/mL (≈ 25.1 µM) | 12.1 µg/mL (≈ 22.3 µM) | 13.6 µg/mL (≈ 25.1 µM) | 10.8 µg/mL (≈ 19.9 µM) | 10.8 µg/mL (≈ 19.9 µM) | 10.8 µg/mL (≈ 19.9 µM) | 12.1 µg/mL (≈ 22.3 µM) | 13.6 µg/mL (≈ 25.1 µM) | 10.8 µg/mL (≈ 19.9 µM) | 12.1 µg/mL (≈ 22.3 µM) | – | – | –
CN(C)CCC(O)(c1cc(F)cc(F)c1)c1cc(Br)cc2cc(Cc3ccccc3)c(-n3ccnc3)nc12 (stereo not drawn) [Compound 19] | 11.5 µg/mL (≈ 19.9 µM) | 11.5 µg/mL (≈ 19.9 µM) | 14.5 µg/mL (≈ 25.1 µM) | 12.9 µg/mL (≈ 22.3 µM) | 14.5 µg/mL (≈ 25.1 µM) | 14.5 µg/mL (≈ 25.1 µM) | – | 14.5 µg/mL (≈ 25.1 µM) | 14.5 µg/mL (≈ 25.1 µM) | 14.5 µg/mL (≈ 25.1 µM) | 11.5 µg/mL (≈ 19.9 µM) | 14.5 µg/mL (≈ 25.1 µM) | – | – | –
CN(C)CCC(O)(c1cccs1)c1cc(Br)cc2cc(Cc3ccccc3)c(N3CCN(C)CC3)nc12 (stereo not drawn) [Compound 20] | – | 14.6 µg/mL (≈ 25.2 µM) | 14.6 µg/mL (≈ 25.2 µM) | 13 µg/mL (≈ 22.4 µM) | 14.6 µg/mL (≈ 25.2 µM) | 14.6 µg/mL (≈ 25.2 µM) | – | 11.6 µg/mL (≈ 20 µM) | 46 µg/mL (≈ 79.4 µM) | 14.6 µg/mL (≈ 25.2 µM) | 11.6 µg/mL (≈ 20 µM) | 14.6 µg/mL (≈ 25.2 µM) | 14.6 µg/mL (≈ 25.2 µM) | 11.6 µg/mL (≈ 20 µM) | 13 µg/mL (≈ 22.4 µM)
CN(C)CCC(O)(c1cccs1)c1cc(Br)cc2cc(Cc3ccccc3)c(N(C)C)nc12 (stereo not drawn) [Compound 46] | 10.5 µg/mL (≈ 20 µM) | 10.5 µg/mL (≈ 20 µM) | 10.5 µg/mL (≈ 20 µM) | 11.7 µg/mL (≈ 22.3 µM) | 10.5 µg/mL (≈ 20 µM) | 10.5 µg/mL (≈ 20 µM) | 10.5 µg/mL (≈ 20 µM) | 10.5 µg/mL (≈ 20 µM) | 9.3 µg/mL (≈ 17.7 µM) | 10.5 µg/mL (≈ 20 µM) | 10.5 µg/mL (≈ 20 µM) | 10.5 µg/mL (≈ 20 µM) | – | – | –
CN(C)CCOc1nc2c(C(O)(CCN(C)C)c3ccccc3)cc(Br)cc2cc1Cc1ccccc1 (stereo not drawn) [Compound 49] | – | 44.7 µg/mL (≈ 79.5 µM) | 56.3 µg/mL (≈ 100 µM) | 56.3 µg/mL (≈ 100 µM) | 56.3 µg/mL (≈ 100 µM) | 56.3 µg/mL (≈ 100 µM) | – | 44.7 µg/mL (≈ 79.5 µM) | 56.3 µg/mL (≈ 100 µM) | 56.3 µg/mL (≈ 100 µM) | 22.4 µg/mL (≈ 39.8 µM) | 56.3 µg/mL (≈ 100 µM) | 56.3 µg/mL (≈ 100 µM) | – | –
CN(C)CCC(O)(c1ccccc1)c1cc(Br)cc2cc(Cc3ccccc3)c(NCCC(c3ccccc3)c3ccccc3)nc12 (stereo not drawn) [Compound 59] | 17.2 µg/mL (≈ 25.1 µM) | 15.3 µg/mL (≈ 22.3 µM) | 17.2 µg/mL (≈ 25.1 µM) | 54.4 µg/mL (≈ 79.4 µM) | 10.9 µg/mL (≈ 15.9 µM) | 17.2 µg/mL (≈ 25.1 µM) | 54.4 µg/mL (≈ 79.4 µM) | 15.3 µg/mL (≈ 22.3 µM) | 54.4 µg/mL (≈ 79.4 µM) | 10.9 µg/mL (≈ 15.9 µM) | 15.3 µg/mL (≈ 22.3 µM) | 17.2 µg/mL (≈ 25.1 µM) | – | 15.3 µg/mL (≈ 22.3 µM) | –

— US8017606B2, “Quinoline derivatives as antibacterial agents” (Janssen Pharmaceutica NV, priority 2005, dated 2011)
